Assay results as given in patent US7317038B2, “Nerve regeneration promoters containing semaphorin inhibitor as the active ingredient” (Dainippon Sumitomo Pharma Co., Ltd., priority 2000, dated 2008).

Columns and labels:
[1] = target: T1, rat semaphorin 6C-AP (Sema6C-AP) (Rattus norvegicus, UniProt Q9WTL3); assay: Suppression of growth cone collapse activity of Sema6C-AP (chick embryo dorsal root ganglions); format: cell-based
T1 construct: a fusion protein of extracellular domain of Sema6C and human placenta-derived alkaline phosphatase
T1 sequence (Q9WTL3 24-635 limits assumed): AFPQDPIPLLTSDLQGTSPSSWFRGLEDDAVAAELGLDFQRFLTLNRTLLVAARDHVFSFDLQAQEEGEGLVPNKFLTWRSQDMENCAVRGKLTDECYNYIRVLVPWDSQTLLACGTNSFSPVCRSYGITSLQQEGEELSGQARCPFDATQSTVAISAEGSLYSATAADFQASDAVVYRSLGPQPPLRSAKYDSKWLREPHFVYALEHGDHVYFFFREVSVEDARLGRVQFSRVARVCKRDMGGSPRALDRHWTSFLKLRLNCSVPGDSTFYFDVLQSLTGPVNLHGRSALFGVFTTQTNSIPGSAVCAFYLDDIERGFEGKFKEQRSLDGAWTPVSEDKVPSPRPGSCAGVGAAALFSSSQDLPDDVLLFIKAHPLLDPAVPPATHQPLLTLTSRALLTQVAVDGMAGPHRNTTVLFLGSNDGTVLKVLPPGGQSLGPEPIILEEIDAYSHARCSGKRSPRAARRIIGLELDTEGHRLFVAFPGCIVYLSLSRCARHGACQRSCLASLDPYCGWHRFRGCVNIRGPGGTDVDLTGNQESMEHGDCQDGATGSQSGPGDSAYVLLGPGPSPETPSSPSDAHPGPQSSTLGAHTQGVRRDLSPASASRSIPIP
Experimental: The experiment was carried out in a same way as in Example 2 except that rat semaphorin 6C-AP (Sema6C-AP: a fusion protein of extracellular domain of Sema6C and human placenta-derived alkaline phosphatase) was used instead of mouse semaphorin 3A (Sema3A), and dorsal root ganglions excised from 8-day-old chick embryos were used instead of those excised from 7-day-old chick embryos. The collapse rate of growth cone was measured when Sema6C-AP was added one hour after the addition of the compound SPF-3059-1 at various concentrations.

[2] = test system: adult rat models for olfactory nerve axotomy; assay: In vivo nerve regeneration after olfactory nerve axotomy; conditions: for Positive section No. (which section from the vertex, average ± SE): HRP-positive glomerulus
Experimental: Male Wister rats (6.5-week-old) were purchased from CHARLES RIVER JAPAN, INC. and bred under free feeding and water uptake in the dedicated breeding room. A sample solution was prepared by diluting SPF-3059-1 to lmg/ml with PBS and filled in an osmotic pressure pump (alzet 2004, ALZA co., USA). A pump filled with PBS was used as a control. The sample solution and the like were prepared on the day before the operation and the osmotic pressure pump was bathed in PBS and placed overnight at room temperature. Just before the operation, a L-cannula was connected to the one end of a silicon tube filled with the sample solution and the like, and the other end of the tube was connected to the pump. A rat was anesthetized with pentbarbital (50 mg/kg, intrapenitrially injected), and its head was fixed to the stereotaxic apparatus. The scalp was incised along the median and the cranium above the olfactory bulb was opened to expose the olfactory bulb (anterior part). In order to axotomize olfactory nerve, a knife (a razor was cut into 1.5 mm width) was inserted in between the olfactory bulb and the cribriform plate. The olfactory nerve which is projected on the upper olfactory bulb is axotomized by this handling. The L-cannula was fixed to the cranium-opening above the olfactory with surgical instant adhesive and dental cement so that the edge of cannula is located in the vicinity of the incision. The sample output was set to 6 μl (6 μg)/day. The pump was subcutaneously inserted in the dorsal neck and the incision was sutured. Then the animal was recovered.
Two and three weeks after the operation, the rat anesthetized with pentbarbital was laid on its back and injected with 100 μl of 1% WGA-HRP/PBS (TOYOBO) into the nasal cavity using a microsyringe. 24 hours after the HRP injection, the rat was further anesthetized with pentbarbital (50 mg/kg, intrapenitrially injected) and was thoracically incised. […]
Regeneration of olfactory nerves was quantitatively assessed by observing in which horizontal section of the olfactory bulb from the vertex did HRP-positive glomerulus emerge. […]

[3] = test system: sciatic nerves that were crushed; assay: In vivo nerve regeneration after sciatic nerve crush; conditions: rat; 1 ug/day locally for 14 days; distal areas of 2 mm and 6 mm from the crush site
Experimental: Male Wister rats were purchased at 7-week-old (CHARLES RIVER JAPAN, INC.) and bred under the light and dark cycles for 12 hours. The rats had free access to solid feedstuff (CLEA Japan, Inc., CE2) and water, and were used in the experiment after about one week of preliminary breeding. Under pentbarbital anesthesia, sciatic nerve of the rat thighs was exposed, clipped for 30 sec with forceps of 5 mm width, and was thus crushed. The crush site was marked with 10-0 nylon thread. SPF-3059-1 was dissolved in PBS at 8.3 ug/ml and was locally administered to the lesion site for 14 consecutive days at a flow rate of 1 ug/day by using an osmotic pressure pump (2ML2, 5 ul/hr, alzet). PBS was administered to the controls. At Day 14 of administration, the sciatic nerves were excised and trimmed at the distal areas from the crush site (the positions of marking) by 2 mm, 6 mm and 10 mm. The incised sciatic nerves were fixed in 2.5% glutaraldehyde/0.1 M phosphate buffer for a day and a night. When they were fixed, nerves were dehydrated by alcohol and were embedded in epoxy resin. […] After the areas of sciatic nerves were measured, the myelinated fiber density was calculated by […].

- collapse rate of growth cones, compound alone ([1]; Sema6C-AP not added): did not affect the rate at all
SMILES: CC(=O)c1c(C)c(C(=O)C2COc3cc(O)c(O)c(C(=O)O)c3C2=O)cc2c(=O)c3c(C(=O)O)c(O)c(O)cc3oc12 (stereo not drawn) [SPF-3059-1]
- inhibition of growth cone collapse activity of Sema6C-AP (in words) ([1]; E8 chick embryo dorsal root ganglions, Sema6C-AP added one hour after compound): inhibit the growth cone collapse activities of Sema6C-AP in a concentration-dependent manner
- in vivo nerve-regeneration promoting action in olfactory nerve axotomy (in words) [2]: marked nerve-regeneration promoting action
- Positive section No. (which section from the vertex, average ± SE) ([2]; Week 2, 6 μg/day by osmotic pump near incision): 8.3 ± 1.9
- Positive section No. (which section from the vertex, average ± SE) ([2]; Week 3, 6 μg/day by osmotic pump near incision): 5.2 ± 1.9
- myelinated fiber density vs PBS-injected group [3]: increased more
